In patent US9624167B2, “N-(4-hydroxy-4-methyl-cyclohexyl)-4-phenyl-benzenesulfonamides and N-(4-hydroxy-4-methyl-cyclohexyl)-4-(2-pyridyl)benzenesulfonamides and their therapeutic use” (PIMCO 2664 LIMITED, priority 2013, dated 2017):

Key:
Type in all cases: cell-based
[1] = test system: TK6 human lymphoblastoid cell line; assay: GreenScreen HC cytotoxicity (propidium iodide uptake)
Description: (§1) GreenScreen HC is a mammalian cell-based assay for measuring the genotoxicity and cytotoxicity of chemical compounds and mixtures.
Cytotoxicity is measured in the GreenScreen assay alongside genotoxicity and the results of the cytotoxicity assessment are used to normalise the genotoxicity measurements as described above.
In the GreenScreen HC assay, cell viability is assessed using a propidium iodide uptake assay. Propidium iodide is an intercalating agent and a fluorescent molecule that can be used to stain cells. It is commonly used to quantitatively assess DNA content to evaluate cell viability or DNA content in cell cycle analysis and can be used to differentiate necrotic, apoptotic and normal cells (see, e.g., Dengler et al., 1995, Anticancer Drugs, Vol. 6, No. 4, pp. 522-532). Exposure to a cytotoxic compound increases the uptake of propidium iodide, which is monitored by optical absorbance and is proportional to […]. Cytotoxic compounds are those that show an observed decrease in relative population survival below a significance threshold set at 90% compared to vehicle-treated control, at one or more test concentrations.
(§2) A dilution series of each test compound is generated in parallel in a 96-well, black microplate with an optically clear base. A standard genotoxic compound (methyl methanesulfonate, MMS) is added as an intra-plate quality control check. The plates are analysed at 24 hour and 48 hour time points using a microplate reader, which provides measurements of light absorbance and fluorescence for cells and solutions in the microplates wells.
(§3) In addition to measurements of cell viability and genotoxicity described above, the GreenScreen assay incorporates an assessment of the effects of metabolic activation in the assay, the “GreenScreen HC S9 assay”. To accomplish this, the cells are incubated both in the presence of and absence of the post-mitochondrial supernatant liver extract (known as “S9”). S9 is routinely used in genetic toxicology to supplement the test cells with mammalian phase I metabolism. To assess metabolic activation, compounds are incubated with the TK6 strain in the presence of 1% v/v S9 fraction mix for 3 hours with a subsequent 45 hour recovery time. After the recovery period, the GFP fluorescence signal and cell viability (assessed by propidium iodide uptake) are measured using a flow cytometer. Cyclophosphamide, a commonly used control in genotoxicity studies utilising metabolic activation, is used as the positive control in the assay. In the GreenScreen HC S9 assay, genotoxicity is evaluated by induction in GFP expression quantified using the mean sample fluorescence and cytotoxicity using the propidium iodide uptake assay described above. The statistically defined threshold for a positive genotoxicity result is 1.3, i.e. 30% induction over and above the baseline for the vehicle-treated control and the result is reported as positive or negative. Cytotoxic compounds are those that show an observed decrease in relative population survival below a significance threshold set at 90% compared to vehicle-treated control, at one or more test concentrations.
(§4) Stably transfected reporter cell lines were derived from the p53-competent human lymphoblastoid TK6 cell line. The reporter cell line carries an episomally replicating plasmid bearing the upstream promoter region and other regulatory sequences of the human GADD45a gene linked to a human optimised Green Fluorescent Protein (GFP) gene. The control cell line carries an identical plasmid except for the removal of 4 base pairs at the start of the EGFP gene, such that GFP is not produced. Both plasmids also carry a gene conferring resistance to hygromycin B to the cell line, allowing continued selection for plasmid presence (200 μg/mL hygromycin B; Invitrogen Corporation, Carlsbad, Calif.). […]

[2] = test system: GADD45a-GFP reporter in TK6 human lymphoblastoid cell line; assay: GreenScreen HC genotoxicity (GADD45a-GFP reporter)
From the text: as §1
The term genotoxic is used to describe substances that are capable of causing damage to genetic material (DNA) within a cell, which may ultimately have mutagenic, carcinogenic or teratogenic effects in humans.
The GreenScreen assay reports genotoxic stress as an increase in fluorescence from a genetically modified derivative of the p53-competent TK6 human lymphoblastoid cell line. In the modified cells, regulatory DNA sequences which promote the transcription of the GADD45a gene control the expression of Green Fluorescent Protein (GFP). GADD45a has a central role in genomic integrity, and genotoxic stress induces its transcription. Exposure to a genotoxic compound therefore increases the expression of GFP, which is observed as an increase in fluorescence and which is monitored by fluorescent detection using a plate reader or flow cytometer. In the GreenScreen HC assay fluorescence is normalised to the optical absorbance measurement to correct for variation in cell yield caused by loss of cell viability or cytotoxicity. The statistically defined threshold for a positive result in the GreenScreen HC assay is 1.5, i.e., 50% induction over and above the baseline for the vehicle-treated control.
as §2, §3
as §4, with “produced.” for “produced. Both plasmids also carry a gene conferring resistance to hygromycin B to the cell line, allowing continued selection for plasmid presence (200 μg/mL hygromycin B; Invitrogen Corporation, Carlsbad, Calif.).”

[3] = test system: J774 macrophages; assay: Resazurin Macrophage J774 Viability Assay; conditions: Mus musculus, 12 point concentration range 10 μM to 0.5 nM, n = 4 replicates, mean of 3 independent experiments, 72 hour incubation, read-out: IC50 (2)
[4] = lowest effective concentration for loss of cell viability
[5] = GreenScreen HC, positive or negative

Compound	Cytotoxicity, LEC, 48 h, −S9 ([1]; absence of S9 fraction) [µM]	Cytotoxicity, LEC, 48 h, +S9 ([1]; presence of S9 fraction) [µM]	Cytotoxicity, LEC, 24 h [1, 4] [µM]	Genotoxicity [2, 5]	IC50 [3] [nM]	also measured
Cc1cc(S(=O)(=O)NC2CCC(C)(O)CC2)ccc1-c1ccc(F)cc1F (single isomer, unassigned) [REF001, reference compound]	0.039	0.63	0.039	Positive	50	
Cc1cc(S(=O)(=O)N[C@H]2CC[C@H](O)CC2)ccc1-c1ccc(F)cc1F [ABD735]	0.31	5	0.31	Negative		
O=S(=O)(N[C@H]1CC[C@H](O)CC1)c1ccc(-c2ncc(Cl)cc2Cl)cc1 [ABD836, reference compound]	0.01	40	0.04	Positive		
C[C@]1(O)CC[C@@H](NS(=O)(=O)c2ccc(-c3ccc(F)cc3F)cc2)CC1 [ABD899, reference compound]						Cytotoxicity, LEC, 24 h ([1]; lab scale batch tested in the range 1.3 mM to 0.3 pM): <0.001 µM; Cytotoxicity, LEC, 24 h ([1]; mid scale batch tested in the range 164 μM to 0.003 μM): 0.64 µM; Cytotoxicity, LEC, 48 h, +S9 ([1]; +S9, lab scale batch, 1.3 mM to 0.3 pM): 0.32 µM; Cytotoxicity, LEC, 48 h, +S9 ([1]; +S9, mid scale batch, 164 μM to 0.003 μM): 81.9 µM; Cytotoxicity, LEC, 48 h, −S9 ([1]; −S9, lab scale batch, 1.3 mM to 0.3 pM): <0.001 µM; Cytotoxicity, LEC, 48 h, −S9 ([1]; −S9, mid scale batch, 164 μM to 0.003 μM): 0.08 µM; Genotoxicity ([2]; lab scale batch, 1.3 mM to 0.3 pM): Positive; Genotoxicity ([2]; mid scale batch, 164 μM to 0.003 μM): Negative
C[C@]1(O)CC[C@H](NS(=O)(=O)c2ccc(-c3ccc(F)cc3F)cc2)CC1 [ABD900, reference compound]	0.07	74.1	0.29	Negative		
C[C@]1(O)CC[C@H](NS(=O)(=O)c2ccc(-c3ccc(Cl)cc3C#N)cc2)CC1 [HMC-C-01-A, 4′-Chloro-2′-cyano-N-((1r,4r)-4-hydroxy-4-methylcyclohexyl)biphenyl-4-sulfonamide]	0.12	60	0.47	Negative	1890	
C[C@]1(O)CC[C@@H](NS(=O)(=O)c2ccc(-c3ccc(Cl)cc3C#N)cc2)CC1 [HMC-C-01-B, 4′-Chloro-2′-cyano-N-((1s,4s)-4-hydroxy-4-methylcyclohexyl)-[1,1′-biphenyl]-4-sulfonamide]	0.005	4.82	0.08	Negative	160	
C[C@]1(O)CC[C@H](NS(=O)(=O)c2ccc(-c3ccc(F)cc3C(F)(F)F)cc2)CC1 [HMC-C-02-A, 4′-Fluoro-N-((1r,4r)-4-hydroxy-4-methylcyclohexyl)-2′-(trifluoromethyl)biphenyl-4-sulfonamide]	60	120	>1000	Negative	14700	
C[C@]1(O)CC[C@@H](NS(=O)(=O)c2ccc(-c3ccc(F)cc3C(F)(F)F)cc2)CC1 [HMC-C-02-B, 4′-Fluoro-N-((1s,4s)-4-hydroxy-4-methylcyclohexyl)-2′-(trifluoromethyl)-[1,1′-biphenyl]-4-sulfonamide]					1740	
C[C@]1(O)CC[C@H](NS(=O)(=O)c2ccc(-c3c(F)cc(F)cc3F)cc2)CC1 [HMC-C-03-A, 2′,4′,6′-Trifluoro-N-((1r,4r)-4-hydroxy-4-methylcyclohexyl)biphenyl-4-sulfonamide]	0.06	15	0.24	Negative	410	
C[C@]1(O)CC[C@@H](NS(=O)(=O)c2ccc(-c3c(F)cc(F)cc3F)cc2)CC1 [HMC-C-03-B, 2′,4′,6′-Trifluoro-N-((1s,4s)-4-hydroxy-4-methylcyclohexyl)-[1,1′-biphenyl]-4-sulfonamide]	0.08	10.8	0.17	Positive	200	
C[C@]1(O)CC[C@H](NS(=O)(=O)c2ccc(-c3ccc(F)cc3F)c(F)c2)CC1 [HMC-C-04-A, 2,2′,4′-Trifluoro-N-((1r,4r)-4-hydroxy-4-methylcyclohexyl)-[1,1′-biphenyl]-4-sulfonamide]					500	
C[C@]1(O)CC[C@@H](NS(=O)(=O)c2ccc(-c3ccc(F)cc3F)c(F)c2)CC1 [HMC-C-04-B, 2,2′,4′-Trifluoro-N-((1s,4s)-4-hydroxy-4-methylcyclohexyl)-[1,1′-biphenyl]-4-sulfonamide]					60	
C[C@]1(O)CC[C@H](NS(=O)(=O)c2ccc(-c3ncc(F)cc3F)c(F)c2)CC1 [HMC-N-01-A, 4-(3,5-Difluoropyridin-2-yl)-3-fluoro-N-((1r,4r)-4-hydroxy-4-methylcyclohexyl)benzenesulfonamide]	0.12	60	0.94	Negative	2660	
C[C@]1(O)CC[C@@H](NS(=O)(=O)c2ccc(-c3ncc(F)cc3F)c(F)c2)CC1 [HMC-N-01-B, 4-(3,5-Difluoropyridin-2-yl)-3-fluoro-N-((1s,4s)-4-hydroxy-4-methylcyclohexyl)benzenesulfonamide]	0.05	5.85	0.01	Negative	140	
C[C@]1(O)CC[C@H](NS(=O)(=O)c2ccc(-c3ncc(F)cc3F)cc2)CC1 [HMC-N-02-A, 4-(3,5-Difluoropyridin-2-yl)-N-((1r,4r)-4-hydroxy-4-methylcyclohexyl)benzenesulfonamide]	0.47	120	0.94	Negative	4590	
C[C@]1(O)CC[C@@H](NS(=O)(=O)c2ccc(-c3ncc(Cl)cc3Cl)cc2)CC1 [HMC-N-03-B, 4-(3,5-Dichloropyridin-2-yl)-N-((1s,4s)-4-hydroxy-4-methylcyclohexyl)benzenesulfonamide]					80	
C[C@]1(O)CC[C@H](NS(=O)(=O)c2ccc(-c3ncc(Cl)cc3Cl)c(F)c2)CC1 [HMC-N-04-A, 4-(3,5-Dichloropyridin-2-yl)-3-fluoro-N-((1r,4r)-4-hydroxy-4-methylcyclohexyl)benzenesulfonamide]	0.12	30	0.47	Negative		
